Biological target: STING (Homo sapiens, UniProt Q86WV6, G230A/H232R/R293Q/R71H)
Test: STING reporter assay: THP1-Dual KO-IFNAR2 cells stimulated with 2′3′cGAMP, luciferase reporter activity
Format: cell-based
Conditions: 15 μM 2′3′cGAMP, 24h
How it was run: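 THP1-Dual KO-IFNAR2 cells (2×10E6 cells/mL) treated with compounds at 0.0017-100 μM, then stimulated with 2′3′cGAMP (15 μM final) delivered by Lipofectamine 2000; 24 h at 37° C. Supernatant luciferase read by QUANTI-Luc Plus luminescence; EC50 from dose-response.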

Chain of STING (Q86WV6 whole entry R71H/G230A/H232R/R293Q): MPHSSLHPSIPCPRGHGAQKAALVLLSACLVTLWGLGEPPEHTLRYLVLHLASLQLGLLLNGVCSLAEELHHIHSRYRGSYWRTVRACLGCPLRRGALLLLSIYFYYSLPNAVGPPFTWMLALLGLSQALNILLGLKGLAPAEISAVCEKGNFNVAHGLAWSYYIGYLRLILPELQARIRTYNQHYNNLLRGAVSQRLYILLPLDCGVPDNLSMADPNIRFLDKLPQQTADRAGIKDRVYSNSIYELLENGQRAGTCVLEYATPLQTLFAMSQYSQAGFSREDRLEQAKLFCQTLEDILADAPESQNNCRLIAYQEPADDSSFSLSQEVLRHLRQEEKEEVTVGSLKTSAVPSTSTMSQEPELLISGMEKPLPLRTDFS

SMILES	EC50 (numeric bounds) [µM]	EC50 (class symbols) [µM]
O=C(Nc1ccc(F)c(F)c1)Nc1ccc2[nH]ccc2c1 [Compound 342]	> 30	
c1cc2ccc(Nc3ccc4ccc(C5CCC5)cc4n3)cc2[nH]1 [Compound 386]		1 to 5
Cn1cc(NC(=O)Nc2ccc3[nH]ccc3c2)cn1 [Compound 306]	> 30	
CN(C(=O)Nc1ccc(C(F)(F)F)cc1)c1ccc2[nH]ccc2c1 [Compound 376]		5 to 100
O=C(NCCc1ccc(OC(F)(F)F)cc1)Nc1ccc2cc[nH]c2c1 [Compound 183]		0.2 to 1
O=C(Nc1cccc(C(F)F)c1)Nc1ccc2[nH]ccc2c1 [Compound 303]	> 30	
O=C(NCCc1ncc(C(F)(F)F)cc1Cl)Nc1ccc2cc[nH]c2c1 [Compound 201]		1 to 5
CCCCCCCCCCCCCCCCNC(=O)Nc1ccc2[nH]ccc2c1 [Compound 348]	> 30	
O=C(NCC1CCC1)Nc1ccc2[nH]ccc2c1 [Compound 331]	> 30	
O=C(Nc1ccc2cc[nH]c2c1)Nc1ccc2cc[nH]c2c1 [Compound 170]		1 to 5
O=C(NCCc1ncc(C(F)(F)F)cc1Cl)Nc1ccc2[nH]ccc2c1 [Compound 290]	> 30	
O=C(Nc1ccc2[nH]ccc2c1)N[C@@H]1C[C@H]1c1ccccc1 [Compound 326]	> 30	
O=C(NCCc1c[nH]c2cc(OC(F)(F)F)ccc12)Nc1ccc2cc[nH]c2c1 [Compound 173]		0.2 to 1
CC(O)c1ccnc(Nc2ccc3cc[nH]c3c2)c1 (stereo not drawn) [Compound 395, 1-(2-((1H-indol-6-yl)amino)pyridin-4-yl)ethanol]	> 30	
FC(F)(F)c1ccc2cnc(Nc3ccc4cc[nH]c4c3)cc2c1 [Compound 388]		1 to 5
CN(C)S(=O)(=O)c1cccc(NC(=O)Nc2ccc3[nH]ccc3c2)c1 [Compound 312]	> 30	
N#Cc1cc(NC(=O)Nc2ccc(C(F)(F)F)cc2)cc2[nH]ccc12 [Compound 245]		0.04 to 0.2
CCn1cc(CNC(=O)Nc2ccc3cc[nH]c3c2)cn1 [Compound 180]	> 30	
O=C(NCCC1CC1)Nc1ccc2[nH]ccc2c1 [Compound 330]	> 30	
O=C(Nc1ccc2cc[nH]c2c1)Nc1ccc(C(F)(F)F)cn1 [Compound 269]		0.2 to 1
CCNc1cccc(Nc2ccc3cc[nH]c3c2)n1 [Compound 398, N2-ethyl-N6-(1H-indol-6-yl)pyridine-2,6-diamine]	> 30	
CC(C)c1ccc(NC(=O)Nc2ccc3cc[nH]c3c2)cc1 [Compound 234]		0.2 to 1
O=C(NCCc1ccc(Br)cc1)Nc1ccc2cc[nH]c2c1 [Compound 208]		0.2 to 1
O=C(Nc1cccc(S(=O)(=O)C(F)(F)F)c1)Nc1ccc2cc[nH]c2c1 [Compound 203]		1 to 5
CC(C)(C)c1ccnc(Nc2ccc3cc[nH]c3c2)c1 [Compound 402, N-(4-(tert-butyl)pyridin-2-yl)-1H-indol-6-amine]		5 to 100
FC(F)(F)COc1cccc(Nc2ccc3cc[nH]c3c2)n1 [Compound 396, N-(6-(2,2,2-trifluoroethoxy)pyridin-2-yl)-1H-indol-6-amine]		5 to 100

SMILES	EC50 (numeric bounds) [µM]	EC50 (class symbols) [µM]
O=C(Nc1ccc(C(F)(F)F)cc1)Nc1ccc2c(F)c[nH]c2c1 [Compound 242, 3-(3-fluoro-1H-indol-6-yl)-1-[4-(trifluoromethyl)phenyl]urea]		0.2 to 1
COC(=O)c1cc(NC(=O)Nc2ccc(C(F)(F)F)cc2)cc2[nH]ccc12 [Compound 165]		0.2 to 1
O=C(NCc1csc(-c2ccc(Cl)cc2)n1)Nc1ccc2[nH]ccc2c1 [Compound 350]	> 30	
O=C(NCC1(c2cccc(Cl)c2)CCOCC1)Nc1ccc2cc[nH]c2c1 [Compound 154]	> 30	
N#Cc1ccc(CNC(=O)Nc2ccc3[nH]ccc3c2)c(C(F)(F)F)c1 [Compound 276]	> 30	
O=C(Nc1ccc(C(F)(F)F)cc1)Nc1cnc2cc[nH]c2c1 [Compound 111]		0.2 to 1
CC(C)(C)c1cc(NC(=O)Nc2ccc3cc[nH]c3c2)on1 [Compound 217]		5 to 100
Cc1ccc(Nc2ccc3cc[nH]c3c2)nc1C(F)(F)F [Compound 421, N-(5-methyl-6-(trifluoromethyl)pyridin-2-yl)-1H-indol-6-amine]		1 to 5
O=C(Nc1cccc(S(F)(F)(F)(F)F)c1)Nc1ccc2cc[nH]c2c1 [Compound 233]		0.2 to 1
Cn1cc(-c2cc(NC(=O)Nc3ccc(C(F)(F)F)cc3)cc3[nH]ccc23)cn1 [Compound 197]	> 30	
CC[C@H](NC(=O)Nc1ccc2cc[nH]c2c1)c1ccccc1 [Compound 222]		5 to 100
O=C(Nc1ccc2[nH]ccc2c1)Nc1ccon1 [Compound 334]	> 30	
CCc1ccccc1NC(=O)Nc1ccc2cc[nH]c2c1 [Compound 229]	> 30	
c1cnc(Nc2ccc3cc[nH]c3c2)c(C2CC2)c1 [Compound 394, N-(3-cyclopropylpyridin-2-yl)-1H-indol-6-amine]	> 30	
CC(C)c1ccnc(Nc2ccc3cc[nH]c3c2)c1 [Compound 393, N-(4-isopropylpyridin-2-yl)-1H-indol-6-amine]	> 30	
O=C(Nc1cc(F)cc(C(F)(F)F)c1)Nc1cc(Cl)c2cc[nH]c2c1 [Compound 153]		0.2 to 1
O=C(NCc1cc(Cl)cc(C(F)(F)F)c1)Nc1ccc2[nH]ccc2c1 [Compound 318]		5 to 100
Cc1cc(CNC(=O)Nc2ccc3[nH]ccc3c2)nn1C [Compound 322]	> 30	
FC(F)(F)Cc1ccc(Nc2ccc3cc[nH]c3c2)nc1 [Compound 408, N-(5-(2,2,2-trifluoroethyl)pyridin-2-yl)-1H-indol-6-amine]		5 to 100
O=C(Nc1ccc2[nH]ccc2c1)Nc1ccccc1F [Compound 364]	> 30	
Cc1cc(NC(=O)Nc2ccc3cc[nH]c3c2)ccc1C#N [Compound 227]		0.2 to 1
CC(C)(C)OC(=O)N1CCC(c2ccnc(Nc3ccc4cc[nH]c4c3)n2)CC1 [Compound 429, tert-butyl4-(2-((1H-indol-6-yl)amino)pyrimidin-4-yl)piperidine-1-carboxylate]		5 to 100
O=C(Nc1cccc(S(=O)(=O)N2CCCC2)c1)Nc1ccc2[nH]ccc2c1 [Compound 282]	> 30	
O=C(Nc1ccc2cc[nH]c2c1)Nc1cnccn1 [Compound 220]	> 30	
N#Cc1ccc(OC2CCC(NC(=O)Nc3ccc4[nH]ccc4c3)CC2)cc1 (stereo not drawn) [Compound 308]	> 30	

More lines, now with the values ahead:

EC50 (numeric bounds) [µM]	EC50 (class symbols) [µM]	SMILES
	1 to 5	c1cnc2nc(Nc3ccc4ccn(-c5ccc6cccnc6n5)c4c3)ccc2c1 [Compound 560, N-[1-(1,8-naphthyridin-2-yl)-1H-indol-6-yl]-1,8-naphthyridin-2-amine]
	0.2 to 1	Cc1cc2ccc(C(F)(F)F)cc2nc1Nc1ccc2cc[nH]c2c1 [Compound 565]
	1 to 5	FC(F)(F)Oc1ccc2c(Cl)cc(Nc3ccc4cc[nH]c4c3)nc2c1 [Compound 576, 4-chloro-N-(1H-indol-6-yl)-7-(trifluoromethoxy)quinolin-2-amine]
	1 to 5	Cc1nc(Nc2ccc3cc[nH]c3c2)ccc1OC(C)C [Compound 571, N-[6-methyl-5-(propan-2-yloxy)pyridin-2-yl]-1H-indol-6-amine]
> 30		O=C(Nc1ccc(N2CC(F)(F)C2)nc1)Nc1ccc2c(F)c[nH]c2c1 [Compound 517]
	1 to 5	O=c1c(Nc2ccc(C(F)(F)F)cc2)c(Nc2ccc3[nH]ccc3c2)c1=O [Compound 619]
	1 to 5	FC(F)(F)c1ccc2ncc(Nc3ccc4cc[nH]c4c3)nc2c1 [Compound 555]
	0.2 to 1	FC(F)(F)c1cc(Cl)c2ccc(Nc3ccc4cc[nH]c4c3)nc2c1 [Compound 564]
	0.04 to 0.2	O=C(Nc1ccc(C(F)(F)F)cc1)Nc1cc(Cl)c2c(F)c[nH]c2c1 [Compound 518]
> 30		N#Cc1c[nH]c2cc(NC(=O)Nc3cnc(N4CC(F)(F)C4)c(F)c3)ccc12 [Compound 530]
	5 to 100	O=C(Nc1ccc(C(F)(F)F)cc1)Nc1cc(N2CCCC(Cn3cncn3)C2)c2cc[nH]c2c1 (stereo not drawn) [Compound 572]
	0.2 to 1	Fc1cc(C(F)(F)F)c2ccc(Nc3ccc4cc[nH]c4c3)nc2c1 [Compound 558]
> 7.38		Cc1c(NC(=O)Nc2ccc(C(F)(F)F)cc2)ccc2c(C#N)c[nH]c12 [Compound 526]
> 30		c1cc2ccc(Nc3ccc4c(n3)CCC4)nc2[nH]1 [Compound 566]
	0.2 to 1	O=C(NCCOc1cccc(C(F)(F)F)c1)Nc1ccc2cc[nH]c2c1 [Compound 525]
> 30		O=C(Nc1ccc2c(F)c[nH]c2c1)Nc1ccc(N2CC(F)(F)C2)cn1 [Compound 515]
	1 to 5	FC(F)c1ccc2ccc(Nc3ccc4cc[nH]c4c3)nc2c1 [Compound 586, 7-(difluoromethyl)-N-(1H-indol-6-yl)quinolin-2-amine]
	1 to 5	Cc1cc(NC(=O)Nc2ccc(C(F)(F)F)cc2)cc2[nH]cc(C#N)c12 [Compound 533]
> 30		COc1nc(Nc2ccc3cc[nH]c3c2)ccc1CO [Compound 561, {6-[(1H-indol-6-yl)amino]-2-methoxypyridin-3-yl}methanol]
	0.2 to 1	CC(=O)n1cc(F)c2ccc(NC(=O)Nc3ccc(C(F)(F)F)cc3)cc21 [Compound 534, 1-(1-acetyl-3-fluoro-1H-indol-6-yl)-3-(4-(trifluoromethyl)phenyl)urea]
	5 to 100	Cc1ncccc1-n1cc(C#N)c2ccc(NC(=O)Nc3ccc(C(F)(F)F)cc3)cc21 [Compound 527]
	1 to 5	Fc1cnc(Nc2ccc3cc[nH]c3c2)cc1Nc1ccc2cc[nH]c2c1 [Compound 593, 5-fluoro-N2,N4-bis(1H-indol-6-yl)pyridine-2,4-diamine]
	1 to 5	[N-]=[N+]=Nc1ccc(NC(=O)Nc2ccc3cc[nH]c3c2)cc1 [Compound 510, 1-(4-azidophenyl)-3-(1H-indol-6-yl)urea]
	0.2 to 1	FC(F)(F)c1cccc2nc(Nc3ccc4cc[nH]c4c3)ccc12 [Compound 574, N-(1H-indol-6-yl)-5-(trifluoromethyl)quinolin-2-amine]

From patent US20230092163A1, “COMPOUNDS AND COMPOSITIONS FOR TREATING CONDITIONS ASSOCIATED WITH STING ACTIVITY” (IFM Due, Inc., priority 2019, published 2023)
